Laboratory results from PMC7251097, “Aspartate/asparagine-β-hydroxylase: a high-throughput mass spectrometric assay for discovery of small molecule inhibitors” (Scientific Reports, 2020).
“Also recorded” adds a separate entry of the source. Read-outs that look alike come from different tables or passages of the source. One block for each molecule: values may come before it.

Target: T1, His6-AspH315–758 (human aspartate/asparagine-β-hydroxylase, AspH) (Homo sapiens, UniProt Q12797)
T1 construct: N-Terminally His6-tagged human AspH315–758 (His6-AspH315–758) was produced in E. coli BL21 (DE3) cells; made in house; host or cells: E. coli BL21 (DE3), pET-28a(+) vector
T1 sequence (Q12797 315-758): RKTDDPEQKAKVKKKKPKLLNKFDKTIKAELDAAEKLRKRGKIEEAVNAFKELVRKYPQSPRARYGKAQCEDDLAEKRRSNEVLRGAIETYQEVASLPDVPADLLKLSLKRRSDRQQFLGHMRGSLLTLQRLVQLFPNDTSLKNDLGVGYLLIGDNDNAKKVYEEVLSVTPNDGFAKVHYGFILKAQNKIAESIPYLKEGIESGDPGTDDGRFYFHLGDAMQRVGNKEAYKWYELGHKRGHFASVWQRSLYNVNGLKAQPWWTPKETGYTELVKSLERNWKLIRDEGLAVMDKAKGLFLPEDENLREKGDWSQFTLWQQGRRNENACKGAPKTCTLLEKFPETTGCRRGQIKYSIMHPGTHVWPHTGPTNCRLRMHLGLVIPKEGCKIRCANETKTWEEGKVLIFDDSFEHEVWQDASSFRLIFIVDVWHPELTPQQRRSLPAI
Assay: SPE-MS AspH inhibition assay (LOPAC screen at fixed 20 μM and IC50 dose-response), hydroxylation of cyclic peptide hFX-CP101–119
Format: biochemical

[1] = LOPAC compound at fixed 20 uM, plate 1, normalised to DMSO and 2,4-PDCA controls
[2] = LOPAC compound at fixed 20 uM, substrate conversion, plate 1
[3] = LOPAC compound at 20uM, plate 2, conversion of substrate peptide
[4] = LOPAC compound at 20uM, plate 2, normalised to DMSO and 2,4-PDCA controls
[5] = LOPAC Plate 4, compound at 20 uM, substrate conversion
[6] = LOPAC Plate 4, compound at 20 uM
[7] = LOPAC compound at 20uM, plate 3, conversion of substrate peptide

Plate 1 (% inhibition) [1]: 4.86% | Plate 1 (% conversion) [2]: 34.24%
Structure (SMILES): NC(=O)c1cc(N2CC2)c([N+](=O)[O-])cc1[N+](=O)[O-] [CB 1954]

Plate 1 (% inhibition) [1]: -13.62% | Plate 1 (% conversion) [2]: 40.45%
Structure (SMILES): Clc1nccc2c1ccc1ccccc12 [CBIQ]

Structure (SMILES): CS(=O)(=O)O.Cn1cc(C(F)(F)F)nc1-c1ccc(OCC(O)CNCCOc2ccc(O)c(C(N)=O)c2)cc1 (centres unmarked) [CGP 20712A methanesulfonate]
Plate 2 (% conversion) [3]: 36.56% | Plate 2 (% inhibition) [4]: -1.81%

Plate 1 (% inhibition) [1]: -11.33% | Plate 1 (% conversion) [2]: 39.68%
Structure (SMILES): CC(C)(CO)Cc1cc(C(C)(C)C)c(O)c(C(C)(C)C)c1 [CGP-7930]

Plate 1 (% inhibition) [1]: 0.58% | Plate 1 (% conversion) [2]: 35.68%
Structure (SMILES): CC(C)(C=O)Cc1cc(C(C)(C)C)c(O)c(C(C)(C)C)c1 [CGP-13501]

Structure (SMILES): CCn1cnc2c(Nc3cccc(Cl)c3)nc(N[C@@H]3CCCC[C@@H]3N)nc21.Cl [CGP-74514A hydrochloride]
Plate 1 (% conversion): 10.02% | Plate 1 (% inhibition): 76.98%

% conversion [5]: 36.09%
Structure (SMILES): COc1ccc(OCC2c3cc(OC)c(OC)cc3CCN2C(=O)c2cccc(Cl)c2)cc1 (centres unmarked) [CIQ]

Plate 2 (% conversion) [3]: 39.74% | Plate 2 (% inhibition) [4]: -11.30%
Structure (SMILES): N#Cc1cc2nc([O-])c([O-])nc2cc1[N+](=O)[O-].[Na+].[Na+] [CNQX disodium]

Plate 1 (% inhibition) [1]: -9.21% | Plate 1 (% conversion) [2]: 38.96%
Structure (SMILES): CCc1cccc(N(C)C(N)=Nc2cccc3ccccc23)c1 [CNS-1102]

Structure (SMILES): COc1ccc(/C=C/c2nc(NCCCN(C)C)c3ccccc3n2)cc1.Cl.Cl.O [CP-31398 dihydrochloride hydrate]
% conversion [5]: 42.00%

Structure (SMILES): COc1ccc(/C=C/c2nc(NCCCN(C)C)c3ccccc3n2)cc1 [CP-31398]
Plate 5 (% conversion): 45.27% | Plate 5 (% inhibition): -26.30%

Structure (SMILES): CN[C@@H]1CC[C@@H](c2ccc(Br)cc2)c2ccccc21.Cl [CP-53631]
Plate 5 (% conversion): 37.76% | Plate 5 (% inhibition): -4.23%

Structure (SMILES): CC[C@H]1OC(=O)[C@H](C)[C@@H](O[C@H]2C[C@@](C)(OC)[C@@H](O)[C@H](C)O2)[C@H](C)[C@@H](O[C@@H]2O[C@H](C)C[C@H](NC)[C@H]2O)[C@](C)(O)C[C@@H](C)CN(C)[C@H](C)[C@@H](O)[C@]1(C)O [CP-64434]
Plate 5 (% conversion): 37.11% | Plate 5 (% inhibition): -2.34%

Structure (SMILES): Nc1nc2ccc(Cl)cc2n2c(-c3ccccc3)nnc12 [CP-66713]
Plate 3 (% conversion): 39.27% | Plate 5 (% conversion): 29.84% | Plate 5 (% inhibition): 19.04%

Structure (SMILES): CN(C)C(=O)[C@H](O)[C@H](Cc1ccccc1)NC(=O)c1cc2cc(Cl)ccc2[nH]1 [CP-91149]
Plate 2 (% conversion): 37.12% | Plate 5 (% conversion): 35.66% | Plate 5 (% inhibition): 1.91% | Plate 2 (% inhibition) (20 µM): -3.47%

Structure (SMILES): Cl.Cl.O=c1ccc2[nH]cc(C3=CCNCC3)c2[nH]1 [CP-93129 dihydrochloride hydrate]
% conversion: 37.25% | % inhibition [6]: -2.28%

Structure (SMILES): O=c1ccc2[nH]cc(C3=CCNCC3)c2[nH]1 [CP-93129]
Plate 5 (% conversion): 38.32% | Plate 5 (% inhibition): -5.90%

% inhibition [6]: -15.48% | % conversion [5]: 41.75%
Structure (SMILES): COc1ccccc1CN[C@@H]1CCCN[C@@H]1c1ccccc1.Cl.Cl.O [CP-100263 dihydrochloride hydrate]

Structure (SMILES): COc1ccccc1CN[C@H]1CCCN[C@H]1c1ccccc1 [CP-100263]
Plate 5 (% conversion): 33.08% | Plate 5 (% inhibition): 9.51%

Structure (SMILES): CC(C)(C)OC(=O)NC1[C@H]2CNC[C@@H]12 (some centres unmarked) [CP-101537]
Plate 3 (% conversion): 33.25% | Plate 5 (% conversion): 36.34% | Plate 5 (% inhibition): -0.06%

Structure (SMILES): CN1CCC[C@@H]1Cc1c[nH]c2ccc(Nc3ncccc3[N+](=O)[O-])cc12 [CP-135807]
% conversion: 37.42% | Plate 5 (% conversion): 32.28% | Plate 5 (% inhibition): 11.85%

Plate 3 (% conversion) [7]: 39.02%
Structure (SMILES): CCCCN(CC)c1nc(C)nc2c1c(C)cn2-c1c(C)cc(C)cc1C.Cl [CP-154526 hydrochloride]

Plate 5 (% inhibition) (plate 5 (Pfitzer), test compounds at fixed 20 μM): -9.05% | Plate 5 (% conversion) (plate 5 (Pfitzer), test compounds at fixed 20 μM, mean conversion DMSO 32.88): 39.39%
Structure (SMILES): CCCCN(CC)c1nc(C)nc2c1c(C)cn2-c1c(C)cc(C)cc1C [CP-154526]

Structure (SMILES): Fc1ccc2[nH]c(CN3CCN(c4ccccn4)CC3)cc2c1 [CP-226269]
% conversion: 39.74% | Plate 5 (% conversion): 37.75% | Plate 5 (% inhibition): -4.22%

Structure (SMILES): O.O.O=C(Nc1ccc2c(c1)CCN(Cc1ncn[nH]1)C2)c1ccccc1-c1ccc(C(F)(F)F)cc1 [CP-346086 dihydrate]
% inhibition [6]: -27.35% | % conversion [5]: 45.80%

Structure (SMILES): O=C(Nc1ccc2c(c1)CCN(Cc1ncn[nH]1)C2)c1ccccc1-c1ccc(C(F)(F)F)cc1 [CP-346086]
Plate 5 (% conversion): 46.02% | Plate 5 (% inhibition): -28.53%

Structure (SMILES): COCCOc1cc2nc[nH]c(=O)c2cc1OCCOC [CP-380736]
Plate 1 (% conversion): 40.54% | Plate 1 (% inhibition): -13.90% | Plate 5 (% conversion): 31.91% | Plate 5 (% inhibition): 12.94%

Structure (SMILES): CC(C)(NS(=O)(=O)c1ccc(Oc2ccc(F)cc2)cc1)C(=O)NO [CP-471474]
Plate 5 (% conversion): 38.13% | Plate 5 (% inhibition): -5.33%

Structure (SMILES): CC(C)c1ccc(CC(=O)N2CCC[C@@H](c3cccc(OC(C)(C)C(=O)O)c3)C2)cc1 [CP-775146]
Plate 5 (% conversion): 34.51% | Plate 5 (% inhibition): 5.31%

Structure (SMILES): CN(CCC(Oc1ccc(C(=O)c2nccs2)cc1)c1ccc(Cl)cc1)CC(=O)O (centres unmarked) [CP-802079]
Plate 5 (% conversion): 32.57% | Plate 5 (% inhibition): 11.01%

IC50 [μM] (50 nM His6-AspH315–758, 1.0 μM hFX-CP101–119, 3 μM 2OG, 2 μM Fe(II), 50 mM HEPES pH 7.5, 20 °C, mean ± SD, n = 2 (2,4-PDCA n = 10)): inactive
Structure (SMILES): CC(C)c1c(-c2ccccc2)[nH]c2c(C#N)cnn2c1=O [CPI-455, reference compound]

Plate 2 (% conversion) [3]: 35.99% | Plate 2 (% inhibition) [4]: -0.10%
Structure (SMILES): O=C(c1ccc(Cl)cc1)N1CCN(c2ccc([N+](=O)[O-])c3ncccc23)CC1 [CPNQ]

Plate 3 (% conversion) [7]: 40.87%
Structure (SMILES): CC1(C)CCC(NC(=O)[C@@H](N)CCC(=O)O)CC1 [CR 2249]

Plate 2 (% conversion) [3]: 39.70% | Plate 2 (% inhibition) [4]: -11.19%
Structure (SMILES): O=C(c1ccc2c(c1)OCCO2)N1CCCCC1 [CX 546]

Structure (SMILES): [Ca+2].[Cl-].[Cl-] [Ca(II), CaCl2, reference compound]
IC50 metal ion, AspH [μM] (50 nM AspH, 2.0 μM Fe(II), Zn(OAc)2, NiSO4, CoCl2, MnCl2, CaCl2 as metal sources, n = 2, mean ± SD): do not show any effect; also recorded: does not perturb AspH activity; also recorded: inactive

inhibition at 20 µM (AspH activity, fixed compound concentration 20 μM, initial LOPAC screen, 0.5%v/v DMSO, read-out: Inhibition at 20 µM [%]): 98.5% | Plate 1 (% inhibition) [1]: 98.53% | Plate 1 (% conversion) [2]: 2.78%
Structure (SMILES): O=C(/C=C/c1ccc(O)c(O)c1)OCCc1ccccc1 [Caffeic acid phenethyl ester, reference compound]

Structure (SMILES): Cn1c(=O)c2c(ncn2C)n(C)c1=O [Caffeine]
Plate 1 (% inhibition) [1]: -5.72% | Plate 1 (% conversion) [2]: 37.79%

Structure (SMILES): CNc1ccc2oc(C[C@H]3O[C@@]4(CC[C@H]3C)O[C@H]([C@H](C)C(=O)c3ccc[nH]3)[C@H](C)C[C@H]4C)nc2c1C(=O)O [Calcimycin, calcimycin, reference compound]
Plate 1 (% conversion): 2.02% | IC50 (IC50 [μM]): 4.19 ± 0.1 µM | inhibition at 20 µM (read-out: Inhibition at 20 µM [%]): 101%

Structure (SMILES): Clc1ccc(C(c2ccc(Cl)cc2)n2cc[n+](CC(OCc3ccc(Cl)cc3Cl)c3ccc(Cl)cc3Cl)c2)cc1 (centres unmarked) [Calmidazolium chloride]
Plate 1 (% conversion): 58.50% | Plate 1 (% inhibition) [1]: -67.38%

Plate 2 (% conversion) [3]: 25.50% | inhibition at 20 µM (LOPAC compound at 20uM, plate 2, normalised to DMSO and 2,4-PDCA controls, read-out: Plate 2 (% inhibition)): 31.2%
Structure (SMILES): O=c1[nH]c(=S)[nH]c(-c2ccccc2)c1Cc1c(O)ccc2ccccc12 [Cambinol]

Structure (SMILES): CC1(C(=O)O)C2CCC(O2)C1(C)C(=O)O (centres unmarked) [Cantharidic Acid]
Plate 1 (% conversion): 25.92% | Plate 1 (% inhibition): 29.65%
